In PMC10065799, “High-throughput profiling of sequence recognition by tyrosine kinases and SH2 domains using bacterial peptide display” (eLife, 2023):
Read-outs that look alike come from different tables or passages of the source.

Experiments:
Test in all cases: pTyr-Var library bacterial peptide display kinase screen (enrichment scores)
[1] = tested on: Fer kinase domain; type: biochemical, mouse; conditions: sheet "Fer"
[2] = molecular target: T1, c-Abl kinase domain (Mus musculus, UniProt P00520); type: biochemical
T1 sequence (P00520 242-493 limits assumed): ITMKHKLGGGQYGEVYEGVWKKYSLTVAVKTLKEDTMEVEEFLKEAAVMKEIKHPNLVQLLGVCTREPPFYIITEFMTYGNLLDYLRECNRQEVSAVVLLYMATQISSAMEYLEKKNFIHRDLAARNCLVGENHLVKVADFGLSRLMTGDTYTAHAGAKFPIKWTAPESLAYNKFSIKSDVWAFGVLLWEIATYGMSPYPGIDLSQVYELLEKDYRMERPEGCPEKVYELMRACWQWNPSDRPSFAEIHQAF

[3] = molecular target: c-Src kinase domain (Homo sapiens, UniProt P12931); type: biochemical
[4] = tested on: EPHB2 kinase domain; type: biochemical, human; conditions: sheet EPHB2; effect of variant peptide relative to its reference peptide in the pTyr-Var library screen (enrichment scores)
[5] = tested on: EPHB1 kinase domain; type: biochemical, human; conditions: sheet EPHB1; effect of the variant peptide relative to its reference peptide in the pTyr-Var library screen (enrichment scores)
[6] = variant peptide relative to its reference peptide, pTyr-Var library screen enrichment
[7] = sheet "Abl", effect of variant peptide relative to its reference peptide in pTyr-Var library screen (enrichment)
[8] = sheet "Src", variant peptide versus its reference peptide in the pTyr-Var library screen
[9] = fig5-data2, sheet "Abl", Screen for the variant/reference peptide pair, pTyr-Var library
[10] = value of the variant peptide against its reference peptide in the pTyr-Var library screen with Fer
[11] = sheet "Src", effect of the variant peptide relative to its reference peptide in the pTyr-Var library screen
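Also: log2 fold change in enrichment of variant over reference.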

Sequence: AAVPAYDKIQV [STXBP2_Y401_R405Q]
- Screen [1, 6]: 1.488

Sequence: AEFGLYGAMVW [VSX2_Y222_R227W_YF]
- Screen [2, 7]: 3.628
- Screen [1, 6]: 1.328
- Screen [3, 8]: -0.4242

Sequence: AELKLYSGAQT [ZAP70_Y178_R175L]
- Screen [2, 7]: -2.646

Sequence: AERKLYRNVML [ZNF569_Y33_Q29E]
- Screen [2, 7]: 1.464

Sequence: AKLDIYKRKVE [VWA3B_Y918_N916D]
- Screen [2, 7]: 4.352

Sequence: ANARMYGVLPW [PLP1_Y207_D203N]
- Screen [4]: -1.895
- Screen [3, 8]: -0.7799

Sequence: AVLSLYASGRN [ACTA1_Y145_T150N]
- Screen [2, 9]: -2.061

Sequence: CHKRTYKVTGL [TTN_Y21853_C21851R]
- Screen [2, 7]: -1.801

Sequence: CHSDDYVHISI [TSC1_Y406_L411I]
- Screen [2, 7]: -1.634

Sequence: CPASVYTKRCS [CPT2_Y508_R503C]
- Screen [2, 9]: -1.448

Sequence: DAVCFYRMENA [NPHS2_Y195_I192V_YF]
- Screen [3, 8]: 0.05721

Sequence: DEWFLYKMRDI [CPS1_Y879_K875E]
- Screen [2, 9]: -2.954

Sequence: EAEALYQTTFQ [KRT73_Y325_K328T]
- Screen [4]: 1.238
- Screen [1, 10]: 3.654
- Screen [3, 11]: 1.585

Sequence: EAIMTYVSSFF [ACTN4_Y260_K255E_YF]
- Screen [2, 9]: -1.004

Sequence: EFFDGYWEFSV [ITGA2B_Y265_G267E_YF]
- Screen [3, 11]: 0.01389

Sequence: EGDGVYTLNDE [HP_Y125_N129D]
- Screen [3, 11]: -0.1677

Sequence: ELTTCYRKKCS [CCBE1_Y70_C75S]
- Screen [2, 9]: -0.6974

Sequence: ENELTYFCFKK [CD59_Y86_C89Y_YF]
- Screen [3, 11]: 1.06

Sequence: ETKTPYTVILI [SBDS_Y128_R126T]
- Screen [2, 7]: 0.2291

Sequence: EVTRLYGSVCD [TC2N_Y154_K151T]
- Screen [3, 8]: 2.081

Sequence: FMGVEYSSCDT [EPHA3_Y937_T933M]
- Screen [2, 9]: -2.367

Sequence: FSQETYFRVSN [ABCD1_Y180_Q178E_YF]
- Screen [3]: 0.7032

Sequence: FTGDIYSSSNL [LZTR1_Y141_N143S_YF]
- Screen [1, 10]: -0.3328
- Screen [3, 11]: -0.3427

Sequence: GFPVHYTGVSN [DNMT3B_Y815_D817G]
- Screen [2, 9]: 0.7985

Sequence: GGPAGYLWRAS [PKLR_Y38_R40W]
- Screen [2, 9]: 0.4229

Sequence: GHMFAYDWISI [BEST1_Y227_L224M_YF]
- Screen [1, 10]: -0.1339

Sequence: GHPFAYDWISI [BEST1_Y227_L224P_YF]
- Screen [1, 10]: -0.03554

Sequence: GLQDEYDFKCK [STAT1_Y170_D165G]
- Screen [2, 7]: -1.133

Sequence: GSERRYTREGG [PTPRN2_Y139_S140T]
- Screen [2, 9]: -0.6086

Sequence: HFGNNYTDVLQ [MACC1_Y803_R804T_YF]
- Screen [5]: 1.456

Sequence: HFMELYDLNRD [BBS2_Y648_R643H_YF]
- Screen [3, 11]: 1.185

Sequence: HFVDEYDRTIE [KRAS_Y32_P34R]
- Screen [2, 9]: 1.156

Sequence: HICTAYKLVLA [DHCR24_Y190_E191K]
- Screen [4]: 0.4857
- Screen [1, 10]: -2.51
- Screen [3, 11]: -1.13

Sequence: HILFRYPKEFQ [IDS_Y234_P231L]
- Screen [3, 11]: 0.8356

Sequence: HLTLVYGGIFL [FBP1_Y259_R255L]
- Screen [3, 11]: -0.5188

Sequence: HLVLNYGVCIC [JAK2_Y613_V617I]
- Screen [5]: -0.07338

Sequence: HQKKPYCHTHN [NRAP_Y53_A56T]
- Screen [5]: 0.5433
- Screen [1, 10]: 0.08502

Sequence: IFGVSYGEFRF [CFTR_Y512_D513G_YF]
- Screen [1, 10]: -1.628
- Screen [3, 11]: 1.211

Sequence: IGEGTYGVLFK [CDK2_Y15_V18L_YF]
- Screen [4]: -0.7589
- Screen [3, 11]: 0.1027

Sequence: INMKEYCKKDF [NTN1_Y490_K489E_YF]
- Screen [2, 9]: 0.9886

Sequence: ISRDVYSTDFF [NTRK2_Y702_M697I_YF]
- Screen [3, 8]: 0.05631

Sequence: KGEDFYCVTCP [FHL1_Y149_H154P]
- Screen [2, 9]: -1.428
- Screen [1, 10]: 2.355
- Screen [3, 11]: 2.585

Sequence: KKDGPYDVVVL [PARK7_Y67_E64D]
- Screen [1, 10]: -0.9233

Sequence: KQMEQYMSFHK [HCN1_Y417_V414M]
- Screen [3, 11]: 0.2609

Sequence: KTSGNYLPVTG [WDR19_Y28_A30P]
- Screen [2, 7]: -2.37

Sequence: LDPDSYNVFEN [FOXC1_Y159_M161V]
- Screen [2, 9]: -0.1184

Sequence: LDTSQYFRLFN [CPT2_Y217_M214T]
- Screen [2, 9]: -0.04852

Sequence: LFLASYCIGGG [UBD_Y161_C160S]
- Screen [2, 7]: 1.114

Sequence: LICRRYLVMQR [IL3RA_Y328_V323L]
- Screen [4]: 1.326
- Screen [2, 9]: 0.743

Sequence: LIGTPYWMAPE [PAK5_Y608_V604I]
- Screen [3, 8]: -0.06712

Sequence: LITTPYIGFLG [KCNQ1_Y267_L266P]
- Screen [3, 11]: -1.29

Sequence: LKVQVYILGRE [ASS1_Y359_G356V]
- Screen [1, 10]: 1.05
